{"source": "patent US20130137126A1", "about": "“USE OF A BETA-G[…] FOR THE DETECTION AND/OR IDENTIFICATION OF C. DIFFICILE” (BIOMERIEUX, priority 2010, published 2013)", "type_in_all_cases": "cell-based", "key": {"[1]": {"system": "Clostridium difficile", "experiment": "Activating effect of Ar-beta-glucoside compounds on beta-glucosidase activity, colony coloration on agar media with CHE-beta-glucoside", "settings": "equimolar compounds with CHE-beta-glucoside 0.3 g/l; 24 h", "description": "Six strains of Clostridium difficile were tested on the media comprising a compound which could act as a beta-glucosidase activator in these strains. That of the strain bearing the reference 08 01 091 is 056. The compounds tested as beta-glucosidase activators are as follows: • Arbutin; • O-methyl b-glucoside; • Cellobiose; • Salicin; • 4 Aminophenyl-b-glucoside; • 4-methyl-umbelliferone-b-glucoside; • aesculin.\nThey were tested at concentrations which make it possible to have the same molarity for each of the compounds.\nThe media used are prepared on the basis of the C. difficile chromID® medium indicated supra, for example 1, to which is added the CHE-beta-glucoside substrate at 0.3 g/l and, respectively, one of the compounds according to the following table:\n(§1) The media are distributed into Petri dishes.\n(§2) The seeding is performed from 48 h pre-cultures at 37° C. in anaerobiosis.\n(§3) A suspension in physiological water at 0.5 McF is carried out and then the strains are seeded with the 10 μl calibrated loop.\nReadings are performed after 24 h of incubation at 37° C. and in anaerobiosis.\n(§4) Reading scale of the enzymatic activity/ coloration • 0=no activity • 0.5=very pale coloration • 1=clear low-intensity coloration • 2=distinct medium-intensity coloration, • 3=presence of an intense coloration, • 4=presence of a very intense coloration.\n(§5) The coloration obtained with this substrate is grey up to an intensity of 1, and black for the other values."}, "[2]": {"system": "Clostridium difficile", "experiment": "Activating effect of arbutin on various beta-glucosidase substrates, colony coloration on agar media", "settings": "substrates DHF-, alizarin- and 3HF-beta-glucoside; 24 h and 48 h", "description": "The eight strains of Clostridium difficile tested in Example 1 were tested on media comprising DHF-beta-glucoside (media A), alizarin-beta-glucoside (media B) or 3HF-beta-glucoside (Media C) and an increasing concentration of arbutin.\nThe reading of the dishes is then carried out at 24 h and 48 h.\nThe media used are prepared on the basis of the C. difficile chromID® medium indicated supra, for example 1, to which arbutin is added according to the following table:\nAccording to the substrates, the media are therefore as follows: • DHF-beta-glucoside at 400 mg/L (media TA, 1A, 2A and 3A) • Alizarin-beta-glucoside at 50 mg/L (media TB, 1 B, 2B and 3B) • 3HF-beta-glucoside at 300 mg/L (media TC, 1C, 2C and 3C)\nas §1, §2, §3\nReadings are performed after 24 h and 48 h of incubation at 37° C. in anaerobiosis.\nas §4"}, "[3]": {"system": "Clostridium difficile", "experiment": "Activating effect of arbutin on a beta-glucosidase substrate (CHE-beta-glucoside), colony coloration on agar media", "settings": "24 h", "description": "Eight strains of Clostridium difficile, from the Applicant's collection, were tested on media comprising arbutin at different concentrations with or without CHE-beta-glucoside present. The reading of the dishes is then carried out at 24 h. The media is made up as follows:\nC. difficile ChromID® base common to all of the media:\nThen addition of arbutin and/or CHE-beta-glucoside, according to the media:\nas §1, §2, §3\nReadings are performed after 24 h of incubation at 37° C. in anaerobiosis.\nas §4, §5"}}}
{"smiles": "Nc1ccc(O[C@@H]2O[C@H](CO)[C@@H](O)[C@H](O)[C@H]2O)cc1", "note": "[4-Aminophenyl-beta-glucoside]", "values": [{"measurement": "activating effect on beta-glucosidase of Clostridium difficile", "setting": "[1]", "result": "observed activation of beta-glucosidase"}]}
{"smiles": "OC[C@H]1O[C@@H](Oc2ccc(O)cc2)[C@H](O)[C@@H](O)[C@@H]1O", "note": "[Arbutin, hydroquinone-beta-D-glucoside]", "values": [{"measurement": "coloration intensity in the presence of arbutin", "setting": "[2]", "result": "an improvement in the coloration intensity is noted regardless of the substrate used"}, {"measurement": "activating effect on beta-glucosidase of Clostridium difficile", "setting": "[1]", "result": "observed activation of beta-glucosidase"}, {"measurement": "activation of the beta-glucosidase (intensification of coloration, grey to black)", "setting": "[3]; arbutin added in the presence of CHE-beta-glucoside", "result": "an activation of the beta-glucosidase is noted"}, {"measurement": "coloration of the colonies", "setting": "[3]; arbutin alone, without CHE-beta-glucoside", "result": "does not allow coloration of the colonies to be obtained"}]}
{"smiles": "CO[C@@H]1O[C@H](CO)[C@@H](O)[C@H](O)[C@H]1O", "note": "[O-methyl-beta-glucoside, reference compound]", "values": [{"measurement": "activating effect on beta-glucosidase of Clostridium difficile", "setting": "[1]", "result": "do not have an activating effect"}]}
{"smiles": "O=c1ccc2cc(O[C@@H]3O[C@H](CO)[C@@H](O)[C@H](O)[C@H]3O)c(O)cc2o1", "note": "[aesculin, 6,7-dihydroxy-coumarin-beta-glucoside]", "values": [{"measurement": "activating effect on beta-glucosidase of Clostridium difficile", "setting": "[1]", "result": "observed activation of beta-glucosidase"}]}
{"smiles": "O=C[C@H](O)[C@@H](O)[C@H](O[C@@H]1O[C@H](CO)[C@@H](O)[C@H](O)[C@H]1O)[C@H](O)CO", "note": "[cellobiose, 4-O-beta-D-glucopyranosyl-D-glucose, reference compound]", "values": [{"measurement": "activating effect on beta-glucosidase of Clostridium difficile", "setting": "[1]", "result": "do not have an activating effect"}]}
{"smiles": "OCc1ccccc1O[C@@H]1O[C@H](CO)[C@@H](O)[C@H](O)[C@H]1O", "note": "[salicin, 2-(hydroxymethyl)-phenyl-beta-D-glucoside]", "values": [{"measurement": "activating effect on beta-glucosidase of Clostridium difficile", "setting": "[1]", "result": "observed activation of beta-glucosidase"}]}
